Test results reported in patent publication US20250064941A1, “SIGLEC LIGANDS, CONJUGATES, AND METHODS OF USE THEREOF” (Osprey Biopharmaceuticals, Inc., priority 2023, published 2025).

What was measured:
[1] = target: T1, mouse Siglec-2-Fc-Avi (CD22) (Mus musculus, UniProt P35329); test: SPR binding affinity to mouse CD22; settings: steady-state analysis
T1 construct: made in house
T1 sequence (P35329 22-708 limits assumed): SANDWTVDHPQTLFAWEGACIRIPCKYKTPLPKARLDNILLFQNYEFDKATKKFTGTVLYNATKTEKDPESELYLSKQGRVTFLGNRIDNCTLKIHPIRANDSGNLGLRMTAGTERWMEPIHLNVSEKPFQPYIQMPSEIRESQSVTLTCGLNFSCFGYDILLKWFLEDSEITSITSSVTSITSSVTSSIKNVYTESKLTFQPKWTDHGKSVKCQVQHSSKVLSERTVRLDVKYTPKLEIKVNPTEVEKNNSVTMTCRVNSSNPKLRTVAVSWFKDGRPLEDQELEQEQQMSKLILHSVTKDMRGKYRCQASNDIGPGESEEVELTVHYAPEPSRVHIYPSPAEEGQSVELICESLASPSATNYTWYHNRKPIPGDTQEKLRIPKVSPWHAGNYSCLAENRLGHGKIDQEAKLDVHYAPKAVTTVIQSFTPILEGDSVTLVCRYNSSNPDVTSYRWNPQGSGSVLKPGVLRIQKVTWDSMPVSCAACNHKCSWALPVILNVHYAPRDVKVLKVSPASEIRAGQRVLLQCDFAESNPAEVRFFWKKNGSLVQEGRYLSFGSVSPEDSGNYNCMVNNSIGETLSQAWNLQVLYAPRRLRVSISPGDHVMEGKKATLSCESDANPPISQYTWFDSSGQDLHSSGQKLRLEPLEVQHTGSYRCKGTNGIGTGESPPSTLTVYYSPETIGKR
Outline: (§1)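 Native sialic acid residues are removed from the receptor enzymatically (4 hours at 37° C.) prior to streptavidin capture of the biotinylated protein. Ligand compounds then flow over in HEPES-buffered saline, pH 7.5, containing 0.05% Tween-20 and 1% DMSO, and binding is evaluated at steady state.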

[2] = target: T2, human Siglec-2/CD22 protein (Homo sapiens, UniProt P20273); test: SPR binding affinity to human CD22; settings: steady-state analysis
T2 construct: purchased Acro Biosystems SI2-H82E3
T2 sequence (P20273 20-847): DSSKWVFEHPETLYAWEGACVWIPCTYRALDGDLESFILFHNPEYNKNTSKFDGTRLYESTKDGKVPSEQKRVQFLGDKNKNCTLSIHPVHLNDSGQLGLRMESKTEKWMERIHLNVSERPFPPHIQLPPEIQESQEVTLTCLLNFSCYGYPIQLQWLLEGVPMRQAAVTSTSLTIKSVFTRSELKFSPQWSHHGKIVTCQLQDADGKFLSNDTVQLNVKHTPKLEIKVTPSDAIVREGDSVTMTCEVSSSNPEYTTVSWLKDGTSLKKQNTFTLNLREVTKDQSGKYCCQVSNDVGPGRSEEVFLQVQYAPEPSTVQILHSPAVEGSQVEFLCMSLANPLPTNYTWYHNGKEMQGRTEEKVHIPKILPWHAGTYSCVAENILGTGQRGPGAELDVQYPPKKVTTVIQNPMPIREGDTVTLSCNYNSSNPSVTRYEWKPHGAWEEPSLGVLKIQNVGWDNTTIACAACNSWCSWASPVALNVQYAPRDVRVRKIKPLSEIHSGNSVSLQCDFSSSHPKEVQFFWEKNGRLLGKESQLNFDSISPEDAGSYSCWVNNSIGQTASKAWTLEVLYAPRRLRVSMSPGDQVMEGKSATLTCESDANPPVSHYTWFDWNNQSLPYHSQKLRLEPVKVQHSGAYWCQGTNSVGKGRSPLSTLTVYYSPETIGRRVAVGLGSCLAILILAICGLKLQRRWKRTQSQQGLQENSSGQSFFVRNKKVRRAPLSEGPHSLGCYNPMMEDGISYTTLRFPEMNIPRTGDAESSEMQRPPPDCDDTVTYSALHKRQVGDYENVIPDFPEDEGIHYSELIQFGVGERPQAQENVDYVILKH
Outline: as §1

cynomolgus Siglec-2/CD22 = cynomolgus Siglec-2/CD22 (Macaca fascicularis, UniProt A0A2K5WCZ6); test: biochemical; format: binding; settings: SPR, steady-state analysis; read-out: Affinity cyno CD22
Outline: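 SPR with desialylated (SialoExo, 4 h, 37° C.) cynomolgus CD22 amine-coupled to a CM5 chip. Running buffer 10 mM HEPES, 150 mM NaCl, 0.05% Tween-20, pH 7.5, 1% DMSO, with solvent correction; 120 s dissociation. Affinities from steady-state analysis.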

Chain of cynomolgus Siglec-2/CD22 (A0A2K5WCZ6 entry or part of it): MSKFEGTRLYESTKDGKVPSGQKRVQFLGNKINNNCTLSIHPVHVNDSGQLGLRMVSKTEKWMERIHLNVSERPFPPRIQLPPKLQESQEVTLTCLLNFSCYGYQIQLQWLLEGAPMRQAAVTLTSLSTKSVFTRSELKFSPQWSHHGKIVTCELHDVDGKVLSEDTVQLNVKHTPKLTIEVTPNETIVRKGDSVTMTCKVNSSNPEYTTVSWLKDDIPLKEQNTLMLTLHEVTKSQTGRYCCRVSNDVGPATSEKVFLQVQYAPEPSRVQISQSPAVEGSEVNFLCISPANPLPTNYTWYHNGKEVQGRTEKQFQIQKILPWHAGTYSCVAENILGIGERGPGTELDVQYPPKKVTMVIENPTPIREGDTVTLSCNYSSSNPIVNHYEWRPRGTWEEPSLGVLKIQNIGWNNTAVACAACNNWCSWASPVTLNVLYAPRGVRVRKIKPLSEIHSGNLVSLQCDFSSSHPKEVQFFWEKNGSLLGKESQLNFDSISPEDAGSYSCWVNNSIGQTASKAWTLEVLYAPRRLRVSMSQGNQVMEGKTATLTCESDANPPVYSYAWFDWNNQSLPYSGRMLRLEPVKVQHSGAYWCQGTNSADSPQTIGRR

SMILES	Kd [1] [nM]	Kd [2] [nM]	Kd (cynomolgus Siglec-2/CD22) [nM]
C#CCOCCOCCNc1c(NCCCCCCO[C@]2(C(=O)O)C[C@H](O)[C@@H](NC(=O)CO)[C@H]([C@H](O)[C@H](O)CNC(=O)C(F)(F)c3ccccc3)O2)c(=O)c1=O [Compound 41, (2R,4S,5R,6R)-6-((1R,2R)-3-(2,2-difluoro-2-phenylacetamido)-1,2-dihydroxypropyl)-2-((6-((3,4-dioxo-2-((2-(2-(prop-2-yn-1-yloxy)ethoxy)ethyl)amino)cyclobut-1-en-1-yl)amino)hexyl)oxy)-4-hydroxy-5-(2-hydroxyacetamido) tetrahydro-2H-pyran-2-carboxylic acid]	1000 to 10000	1000 to 10000	1000 to 10000
C#CCOCCOCCO[C@]1(C(=O)O)C[C@H](O)[C@@H](NC(=O)CO)[C@H]([C@H](O)[C@H](O)CNC(=O)Cc2ccc(-c3ccc(=O)[nH]c3)cc2)O1 [Compound 74, (2R,4S,5R,6R)-6-((1R,2R)-1,2-dihydroxy-3-(2-(4-(6-oxo-1,6-dihydropyridin-3-yl)phenyl)acetamido)propyl)-4-hydroxy-5-(2-hydroxyacetamido)-2-(2-(2-(prop-2-yn-1-yloxy)ethoxy)ethoxy)tetrahydro-2H-pyran-2-carboxylic acid]	1000 to 10000	1000 to 10000	1000 to 10000
C#CCOCCCCCCO[C@]1(C(=O)O)C[C@H](O)[C@@H](NC(=O)Cc2ccccc2)[C@H]([C@H](O)[C@H](O)CNC(=O)Cc2ccc(Cl)cc2)O1 [Compound 93, (2R,4S,5R,6R)-6-((1R,2R)-3-(2-(4-chlorophenyl)acetamido)-1,2-dihydroxypropyl)-4-hydroxy-5-(2-phenylacetamido)-2-((6-(prop-2-yn-1-yloxy)hexyl)oxy)tetrahydro-2H-pyran-2-carboxylic acid]	> 10000	1000 to 10000	> 10000
C#CCOCc1cn([C@]2(C(=O)O)C[C@H](O)[C@@H](NC(=O)CO)[C@H]([C@H](O)[C@H](O)CNC(=O)Cc3ccc(-c4ccc(O)cc4)cc3)O2)nn1 [Compound 62, (2R,4S,5R,6R)-6-((1R,2R)-1,2-dihydroxy-3-(2-(4′-hydroxy-[1,1′-biphenyl]-4-yl)acetamido)propyl)-4-hydroxy-5-(2-hydroxyacetamido)-2-(4-((prop-2-yn-1-yloxy)methyl)-1H-1,2,3-triazol-1-yl)tetrahydro-2H-pyran-2-carboxylic acid]	1000 to 10000	1000 to 10000	1000 to 10000
C#CCN(CC(=O)O)C(=O)CCCCCO[C@]1(C(=O)O)C[C@H](O)[C@@H](NC(=O)CO)[C@H]([C@H](O)[C@H](O)CNC(=O)Cc2ccc(Cl)cc2)O1 [Compound 100, (2R,4S,5R,6R)-2-((6-((carboxymethyl)(prop-2-yn-1-yl)amino)-6-oxohexyl)oxy)-6-((1R,2R)-3-(2-(4-chlorophenyl)acetamido)-1,2-dihydroxypropyl)-4-hydroxy-5-(2-hydroxyacetamido)tetrahydro-2H-pyran-2-carboxylic acid]	< 1000	< 1000	< 1000

Now from value to compound:

Kd [1] [nM]	Kd [2] [nM]	Kd (cynomolgus Siglec-2/CD22) [nM]	SMILES
< 1000	< 1000	< 1000	CC(=O)NCCOCCOCCOCCOCCC(=O)NCCCCCCO[C@]1(C(=O)O)C[C@H](O)[C@@H](NC(=O)CO)[C@H]([C@H](O)[C@H](O)CNC(=O)Cc2ccc(-c3nnn[nH]3)cc2)O1 [Cpd. 235, (2R,4S,5R,6R)-6-((1R,2R)-3-(2-(4-(1H-tetrazol-5-yl)phenyl)acetamido)-1,2-dihydroxypropyl)-2-((2,18-dioxo-6,9,12,15-tetraoxa-3,19-diazapentacosan-25-yl)oxy)-4-hydroxy-5-(2-hydroxyacetamido)tetrahydro-2H-pyran-2-carboxylic acid]
< 1000	< 1000	< 1000	C#CCCOc1ccc(CO[C@]2(C(=O)O)C[C@H](O)[C@@H](NC(=O)CO)[C@H]([C@H](O)[C@H](O)CNC(=O)Cc3ccc(Cl)c(O)c3)O2)cc1 [Compound 135, (2R,4S,5R,6R)-2-((4-(but-3-yn-1-yloxy)benzyl)oxy)-6-((1R,2R)-3-(2-(4-chloro-3-hydroxyphenyl)acetamido)-1,2-dihydroxypropyl)-4-hydroxy-5-(2-hydroxyacetamido)tetrahydro-2H-pyran-2-carboxylic acid]
< 1000	< 1000	1000 to 10000	C#CCCCCCCS[C@]1(C(=O)O)C[C@H](O)[C@@H](NC(=O)CO)[C@H]([C@H](O)[C@H](O)CNC(=O)Cc2cccc(O)c2)O1 [Compound 141, (2S,4S,5R,6R)-6-((1R,2R)-1,2-dihydroxy-3-(2-(3-hydroxyphenyl)acetamido)propyl)-4-hydroxy-5-(2-hydroxyacetamido)-2-(oct-7-yn-1-ylthio)tetrahydro-2H-pyran-2-carboxylic acid]
> 10000	1000 to 10000	1000 to 10000	CC(=O)NCCOCCOCCOCCOCCNc1c(NCCCCCCO[C@]2(C(=O)O)C[C@H](O)[C@@H](NC(C)=O)[C@H]([C@H](O)[C@H](O)CNC(=O)c3cccc(Cl)c3)O2)c(=O)c1=O [Compound 273, (2R,4S,5R,6R)-5-acetamido-6-((1R,2R)-3-(3-chlorobenzamido)-1,2-dihydroxypropyl)-2-((6-((3,4-dioxo-2-((2-oxo-6,9,12,15-tetraoxa-3-azaheptadecan-17-yl)amino)cyclobut-1-en-1-yl)amino)hexyl)oxy)-4-hydroxytetrahydro-2H-pyran-2-carboxylic acid]
< 1000	< 1000	< 1000	O=C(O)CCOCCOCCOCCOCCNc1c(NCCCCCCO[C@]2(C(=O)O)C[C@H](O)[C@@H](NC(=O)CO)[C@H]([C@H](O)[C@H](O)CNC(=O)Cc3ccc(Cl)cc3)O2)c(=O)c1=O [Compound 154, (2R,4S,5R,6R)-2-((6-((2-((14-carboxy-3,6,9,12-tetraoxa-tetradecyl)amino)-3,4-dioxocyclobut-1-en-1-yl)amino)hexyl)oxy)-6-((1R,2R)-3-(2-(4-chlorophenyl)acetamido)-1,2-dihydroxypropyl)-4-hydroxy-5-(2-hydroxyacetamido) tetrahydro-2H-pyran-2-carboxylic acid]
> 10000	1000 to 10000	1000 to 10000	C#CCOCCOCCNc1c(NCCCCCCO[C@]2(C(=O)O)C[C@H](O)[C@@H](NC(=O)CO)[C@H]([C@H](O)[C@H](O)CNC(=O)c3ccc(F)cc3)O2)c(=O)c1=O [Compound 232, (2R,4S,5R,6R)-2-((6-((3,4-dioxo-2-((2-(2-(prop-2-yn-1-yloxy)ethoxy)ethyl)amino)cyclobut-1-en-1-yl)amino)hexyl)oxy)-6-((1R,2R)-3-(4-fluorobenzamido)-1,2-dihydroxypropyl)-4-hydroxy-5-(2-hydroxyacetamido)tetrahydro-2H-pyran-2-carboxylic acid]
1000 to 10000	< 1000	< 1000	O=C(O)CCCCCCO[C@]1(C(=O)O)C[C@H](O)[C@@H](NC(=O)CO)[C@H]([C@H](O)[C@H](O)CNC(=O)Cc2cccc(O)c2)O1 [Compound 143, (2R,4S,5R,6R)-2-((6-carboxyhexyl)oxy)-6-((1R,2R)-1,2-dihydroxy-3-(2-(3-hydroxyphenyl)acetamido)propyl)-4-hydroxy-5-(2-hydroxyacetamido)tetrahydro-2H-pyran-2-carboxylic acid]
